The values below come from patent US8710043B2, “TRPM8 antagonists and their use in treatments” (Amgen Inc., priority 2011, dated 2014).

For the experiment, the target named is T1, human TRPM8 (Homo sapiens, UniProt Q7Z2W7).
T1 construct: expressed in transfected cells; host or cells: Chinese hamster ovary (CHO) cells, T-REx tetracycline-inducible system, co-transfected with aequorin
T1 sequence (Q7Z2W7 whole entry): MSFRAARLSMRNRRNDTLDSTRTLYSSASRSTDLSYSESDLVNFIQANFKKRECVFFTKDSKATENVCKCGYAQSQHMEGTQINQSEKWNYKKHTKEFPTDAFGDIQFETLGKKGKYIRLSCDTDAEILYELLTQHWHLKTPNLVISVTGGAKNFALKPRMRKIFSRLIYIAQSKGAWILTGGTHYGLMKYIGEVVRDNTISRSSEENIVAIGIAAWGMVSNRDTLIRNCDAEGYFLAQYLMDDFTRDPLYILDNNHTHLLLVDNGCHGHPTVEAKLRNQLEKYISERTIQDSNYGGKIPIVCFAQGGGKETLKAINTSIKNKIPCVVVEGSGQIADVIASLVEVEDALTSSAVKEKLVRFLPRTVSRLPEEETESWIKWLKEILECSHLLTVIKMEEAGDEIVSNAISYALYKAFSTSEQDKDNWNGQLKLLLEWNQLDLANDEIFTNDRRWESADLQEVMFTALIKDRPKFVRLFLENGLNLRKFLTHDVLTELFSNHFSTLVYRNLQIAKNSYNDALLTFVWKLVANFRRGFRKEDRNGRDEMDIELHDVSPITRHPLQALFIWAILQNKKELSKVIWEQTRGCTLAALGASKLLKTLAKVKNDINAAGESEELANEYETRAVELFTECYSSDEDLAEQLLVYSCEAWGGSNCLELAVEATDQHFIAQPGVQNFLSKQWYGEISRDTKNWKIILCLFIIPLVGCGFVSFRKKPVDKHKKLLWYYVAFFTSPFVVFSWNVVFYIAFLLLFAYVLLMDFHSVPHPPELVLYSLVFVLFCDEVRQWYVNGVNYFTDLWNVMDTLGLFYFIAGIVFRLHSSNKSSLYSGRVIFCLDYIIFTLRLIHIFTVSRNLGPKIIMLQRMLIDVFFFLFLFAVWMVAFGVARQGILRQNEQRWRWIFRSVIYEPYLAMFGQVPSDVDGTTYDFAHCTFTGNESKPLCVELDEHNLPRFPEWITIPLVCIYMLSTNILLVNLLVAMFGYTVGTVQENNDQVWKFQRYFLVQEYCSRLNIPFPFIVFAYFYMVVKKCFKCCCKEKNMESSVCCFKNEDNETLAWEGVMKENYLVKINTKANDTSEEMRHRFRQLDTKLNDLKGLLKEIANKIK
As to the kind of experiment: Luminescence readout assay for measuring intracellular calcium, icilin activation. Type of experiment: cell-based. The conditions noted are these: CHO cells expressing human TRPM8, aequorin luminescence, 1 μM icilin activation; read-out: hTRPM8 IC50. The method in brief: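 The read-out was luminescence reporting intracellular calcium, recorded by a CCD-based luminometer. Compounds were preincubated for 2.5 min before agonist challenge with 1 μM icilin. Human TRPM8 was expressed in a stable T-REx CHO line, induced with 0.5 μg/mL tetracycline the day before.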
Broadly, the IC50 is the concentration at which inhibition is half-maximal. As to `O=C(N[C@@H](c1ccc(C(F)(F)F)cc1)c1ncccc1C(F)(F)F)c1ccc(O)cn1` [Example 64, (S)-5-hydroxy-N-((4-(trifluoromethyl)phenyl)(3-(trifluoromethyl)pyridin-2-yl)methyl)picolinamide], the half-inhibitory concentration (IC50) was determined as 20 nM.
As to `O=C(N[C@@H](c1ccc(C(F)(F)F)cc1)c1ncccc1C(F)(F)F)c1cnc2ccccc2c1` [Example 230, (S)-N-((4-(trifluoromethyl)phenyl)(3-(trifluoromethyl)pyridin-2-yl)methyl)quinoline-3-carboxamide], the IC50 is 83.7 nM.
The figure for `O=C(N[C@@H](c1ccc(C(F)(F)F)cc1)c1ncccc1C(F)(F)F)c1ccccc1I` [Example 118, (S)-2-iodo-N-((4-(trifluoromethyl)phenyl)(3-(trifluoromethyl)pyridin-2-yl)methyl)benzamide] is 90.5 nM.
To `Cn1c(=O)c(=O)n(O)c2ccc(C(=O)N[C@@H](c3ccc(OC(F)(F)F)c(F)c3)c3ncccc3F)cc21` [Example 436, (S)—N-((3-Fluoro-4-(trifluoromethoxy)phenyl)(3-fluoropyridin-2-yl)methyl)-1-hydroxy-4-methyl-2,3-dioxo-1,2,3,4-tetrahydroquinoxaline-6-carboxamide] belongs 22.4 nM; to `O=C(N[C@@H](c1ccc(OC(F)(F)F)cc1)c1ncccc1F)c1ccc2nccn2c1` [Example 89], 10.3 nM; to `Cc1nccn1CC(=O)N[C@@H](c1ccc(C(F)(F)F)cc1)c1ncccc1C(F)(F)F` [Example 160, (S)-2-(2-methyl-1H-imidazol-1-yl)-N-((4-(trifluoromethyl)phenyl)(3-(trifluoromethyl)pyridin-2-yl)methyl)acetamide], 3320 nM.
The figure for `Nc1nc(C(=O)N[C@@H](c2ccc(C(F)(F)F)cc2)c2ncccc2C(F)(F)F)cs1` [Example 136, (S)-2-amino-N-((4-(trifluoromethyl)phenyl)(3-(trifluoromethyl)pyridin-2-yl)methyl)thiazole-4-carboxamide 2,2,2-trifluoroacetate] is 121 nM; for `O=C(N[C@@H](c1ccc(C(F)(F)F)cc1)c1ccccn1)c1ccc2oc(=O)[nH]c2c1` [Example 361, (S)-2-oxo-N-(pyridin-2-yl(4-(trifluoromethyl)phenyl)methyl)-2,3-dihydrobenzo[d]oxazole-5-carboxamide] it is 5.8 nM.
On to `O=C(N[C@@H](c1ccc(C(F)(F)F)cc1)c1ncccc1C(F)(F)F)c1ccc2cn[nH]c2c1` [Example 175, (S)-N-((4-(trifluoromethyl)phenyl)(3-(trifluoromethyl)pyridin-2-yl)methyl)-1H-indazole-6-carboxamide], for which the IC50 came to 30.3 nM.
Consider `COc1cccc([C@H](NC(=O)c2ccc3cccnc3c2)c2ncccc2C(F)(F)F)c1` [Example 24, (S)-N-((3-methoxyphenyl)(3-(trifluoromethyl)pyridin-2-yl)methyl)quinoline-7-carboxamide], for which the IC50 amounted to 318 nM.
As for `COc1cccc(C(NC(=O)c2ccc(=O)[nH]c2)c2ccc(OC(F)(F)F)c(F)c2)n1` (centres unmarked) [Example 420, N-((3-fluoro-4-(trifluoromethoxy)phenyl)(6-methoxypyridin-2-yl)methyl)-6-oxo-1,6-dihydropyridine-3-carboxamide], the half-inhibitory concentration (IC50) was determined as 118 nM.
The figure for `O=C(N[C@@H](c1ccc(OC(F)(F)F)c(F)c1)c1ncccc1F)c1cnc2[nH]c(=O)oc2c1` [Example 427, (S)—N-((3-Fluoro-4-(trifluoromethoxy)phenyl)(3-fluoropyridin-2-yl)methyl)-2-oxo-2,3-dihydrooxazolo[4,5-b]pyridine-6-carboxamide] is 14 nM; for `CC(C)(C(=O)O)C(=O)N[C@@H](c1ccc(C(F)(F)F)cc1)c1ncccc1C(F)(F)F` [Example 243, (S)-2,2-dimethyl-3-oxo-3-(((4-(trifluoromethyl)phenyl)(3-(trifluoromethyl)pyridin-2-yl)methyl)amino)propanoic acid] it is 1440 nM.
The figure for `O=C1COc2cc(C(=O)N[C@@H](c3ccc(C(F)(F)F)cc3)c3ncccc3F)ccc2N1` [Example 73, (S)-N-((3-fluoropyridin-2-yl)(4-(trifluoromethyl)phenyl)methyl)-3-oxo-3,4-dihydro-2H-benzo[b][1,4]oxazine-7-carboxamide] is 17 nM; for `COc1ccc([C@H](NC(=O)c2ccc(=O)n(C)c2)c2ncccc2F)cc1` [Example 343, (S)-N-((3-fluoropyridin-2-yl)(4-methoxyphenyl)methyl)-1-methyl-6-oxo-1,6-dihydropyridine-3-carboxamide] it is 1480 nM; for `CC(C)n1cc(C(=O)N[C@@H](c2ccc(C(F)(F)F)cc2)c2ncccc2F)ccc1=O` [Example 367, (S)-N-((3-fluoropyridin-2-yl)(4-(trifluoromethyl)phenyl)methyl)-1-isopropyl-6-oxo-1,6-dihydropyridine-3-carboxamide] it is 68.3 nM.
To `CC(C)(C)OC(=O)N1CC(CC(=O)N[C@@H](c2ccc(C(F)(F)F)cc2)c2ncccc2C(F)(F)F)C1` [Example 229, (S)-tert-butyl 3-(2-oxo-2-(((4-(trifluoromethyl)phenyl)(3-(trifluoromethyl)pyridin-2-yl)methyl)amino)ethyl)azetidine-1-carboxylate] belongs 354 nM; to `Cc1cc(F)cc([C@H](NC(=O)c2ccc(=O)[nH]c2)c2ncccc2F)c1` [Example 325, (S)-N-((3-fluoro-5-methylphenyl)(3-fluoropyridin-2-yl)methyl)-6-oxo-1,6-dihydropyridine-3-carboxamide], 644 nM; to `O=C(N[C@@H](c1ccc(C(F)(F)F)cc1)c1ncccc1C(F)(F)F)c1ccc[nH]c1=O` [Example 59, (S)-2-oxo-N-((4-(trifluoromethyl)phenyl)(3-(trifluoromethyl)pyridin-2-yl)methyl)-1,2-dihydropyridine-3-carboxamide], 41.6 nM.
In the case of `O=C(N[C@@H](c1ccc(C(F)(F)F)cc1)c1ncccc1F)c1ccc(-c2nc(=O)o[nH]2)cc1` [Example 315, (S)-N-((3-fluoropyridin-2-yl)(4-(trifluoromethyl)phenyl)methyl)-4-(5-oxo-2,5-dihydro-1,2,4-oxadiazol-3-yl)benzamide], the half-inhibitory concentration (IC50) amounted to 36.3 nM.
The figure for `COc1ccccc1C(=O)N[C@@H](c1ccc(C(F)(F)F)cc1)c1ncccc1C(F)(F)F` [Example 176, (S)-2-methoxy-N-((4-(trifluoromethyl)phenyl)(3-(trifluoromethyl)pyridin-2-yl)methyl)benzamide] is 21.9 nM.
To `O=C(CCc1ccccn1)N[C@@H](c1ccc(C(F)(F)F)cc1)c1ncccc1C(F)(F)F` [Example 284, (S)-3-(Pyridin-2-yl)-N-((4-(trifluoromethyl)phenyl)(3-(trifluoromethyl)pyridin-2-yl)methyl)propanamide] belongs 346 nM.
To `O=C(N[C@@H](c1ccc(C(F)(F)F)c(F)c1)c1ncccc1C(F)(F)F)c1ccc2nccnc2c1` [Example 108, (S)-N-((3-fluoro-4-(trifluoromethyl)phenyl)(3-(trifluoromethyl)pyridin-2-yl)methyl)quinoxaline-6-carboxamide] belongs 24.1 nM; to `O=C(N[C@@H](c1ccc(OC(F)(F)F)c(F)c1)c1ncccc1C(F)(F)F)c1ccc(=O)[nH]c1` [Example 383, (S)-N-((3-fluoro-4-(tritluoromethoxy)phenyl)(3-(trifluoromethyl)pyridin-2-yl)methyl)-6-oxo-1,6-dihydropyridine-3-carboxamide], 7.9 nM.
Consider `O=C1CC(C(=O)N[C@@H](c2ccc(C(F)(F)F)cc2)c2ncccc2C(F)(F)F)CN1` (stereo partly drawn) [Example 163, 5-oxo-N-((S)-(4-(trifluoromethyl)phenyl)(3-(trifluoromethyl)pyridin-2-yl)methyl)pyrrolidine-3-carboxamide], for which the IC50 came to 3180 nM.
The figure for `O=C(N[C@@H](c1ccc(Cl)c(Cl)c1)c1ncccc1C(F)(F)F)c1ccc(=O)[nH]c1` [Example 3, (S)-N-((3,4-dichlorophenyl)(3-(trifluoromethyl)pyridin-2-yl)methyl)-6-hydroxynicotinamide] is 17.7 nM; for `O=C(N[C@@H](c1ccc(C(F)(F)F)cc1)c1ncccc1C(F)(F)F)c1ccnnc1` [Example 212, (S)-N-((4-(trifluoromethyl)phenyl)(3-(trifluoromethyl)pyridin-2-yl)methyl)pyridazine-4-carboxamide] it is 81.5 nM; for `O=C(N[C@@H](c1ccc(C(F)(F)F)c(F)c1)c1ncccc1C(F)(F)F)c1ccc2cccnc2n1` [Example 129, (S)-N-((3-fluoro-4-(trifluoromethyl)phenyl)(3-(trifluoromethyl)pyridin-2-yl)methyl)-1,8-naphthyridine-2-carboxamide 2,2,2-trifluoroacetate] it is 114 nM.
On to `O=C(N[C@@H](c1ccc(C(F)(F)F)cc1)c1ncccc1F)c1ccc2nccn2c1` [Example 253, (S)-N-((3-fluoropyridin-2-yl)(4-(trifluoromethyl)phenyl)methyl)imidazo[1,2-a]pyridine-6-carboxamide 2,2,2-trifluoroacetate], for which the IC50 is 11.4 nM.
To `O=C(O)Cn1cc(C(=O)N[C@@H](c2ccc(C(F)(F)F)cc2)c2ncccc2F)ccc1=O` [Example 429, (S)-2-(5-(((3-Fluoropyridin-2-yl)(4-(trifluoromethyl)phenyl)methyl)carbamoyl)-2-oxopyridin-1(2H)-yl)acetic Acid] belongs 2660 nM; to `O=C(N[C@@H](c1ccc(C(F)(F)F)cc1)c1ncccc1C(F)(F)F)c1cncnc1` [Example 147, (S)-N-((4-(trifluoromethyl)phenyl)(3-(trifluoromethyl)pyridin-2-yl)methyl)pyrimidine-5-carboxamide], 148 nM.
The figure for `O=C(O)COc1ccc(C(=O)N[C@@H](c2ccc(C(F)(F)F)cc2)c2ncccc2F)nc1` [Example 279, (S)-2-((6-(((3-Fluoropyridin-2-yl)(4-(trifluoromethyl)phenyl)-methyl)carbamoyl)pyridin-3-yl)oxy)acetic Acid] is 1810 nM.
